Drawing on ChEMBL document CHEMBL1155820, “Lipid-conjugated oligonucleotides via "click chemistry" efficiently inhibit hepatitis C virus translation” (J Med Chem, 2008), this text covers Activity and inhibition for three molecules.

Data set [1] relates to Hepatitis C virus. Description: Inhibition of hepatitis C virus internal ribosome entry site-mediated translation in human Huh7 cells preincubated for 4 hrs in presence of fetal calf serum by bicistronic luciferase reporter gene assay. To be noted: Hepacivirus hominis; Huh-7. In kind it is functional, organism-based.
Data set [2] in a line: Cytotoxicity against human Huh7 cells at 0.1 to 2 uM. In kind it is cell-based. To be noted: huh-7, 2 µM.
Data set [3] relates to Hepatitis C virus. Description: Inhibition of hepatitis C virus internal ribosome entry site-mediated translation in human Huh7 cells at 2 uM preincubated for 4 hrs in presence of fetal calf serum by bicistronic luciferase reporter gene assay. It counts as functional, Hepacivirus hominis. To be noted: Huh-7.
Data set [4] has as its system Hepatitis C virus. As to the kind of experiment: Inhibition of hepatitis C virus internal ribosome entry site-mediated translation in human Huh7 cells at 1 uM preincubated for 4 hrs in presence of fetal calf serum by bicistronic luciferase reporter gene assay. It counts as functional, Hepacivirus hominis. The settings on record: Huh-7.

The source made the active and inactive calls. No cut-off for these calls is given here.

In the case of `CO[C@@H]1[C@H](OP(=O)(O)O)[C@@H](COP(=O)(O)O[C@H]2[C@@H](OC)[C@H](n3cnc4c(=O)[nH]c(N)nc43)O[C@@H]2COP(=O)(O)O[C@H]2[C@@H](OC)[C@H](n3cnc4c(=O)[nH]c(N)nc43)O[C@@H]2COP(=O)(O)O[C@H]2[C@@H](OC)[C@H](n3ccc(N)nc3=O)O[C@@H]2COP(=O)(O)O[C@H]2[C@@H](OC)[C@H](n3ccc(=O)[nH]c3=O)O[C@@H]2COP(=O)(O)O[C@H]2[C@@H](OC)[C@H](n3ccc(N)nc3=O)O[C@@H]2COP(=O)(O)O[C@H]2[C@@H](OC)[C@H](n3cnc4c(N)ncnc43)O[C@@H]2COP(=O)(O)O[C@H]2[C@@H](OC)[C@H](n3ccc(=O)[nH]c3=O)O[C@@H]2COP(=O)(O)O[C@H]2[C@@H](OC)[C@H](n3ccc(N)nc3=O)O[C@@H]2COP(=O)(O)O[C@H]2[C@@H](OC)[C@H](n3cnc4c(N)ncnc43)O[C@@H]2COP(=O)(O)O[C@H]2[C@@H](OC)[C@H](n3ccc(N)nc3=O)O[C@@H]2COP(=O)(O)O[C@H]2[C@@H](OC)[C@H](n3cnc4c(N)ncnc43)O[C@@H]2COP(=O)(O)OP(=O)(O)O[C@H]2[C@@H](OC)[C@H](n3cnc4c(N)ncnc43)O[C@@H]2COP(=O)(O)O[C@H]2[C@@H](OC)[C@H](n3ccc(N)nc3=O)O[C@@H]2COP(=O)(O)O[C@H]2[C@@H](OC)[C@H](n3ccc(N)nc3=O)O[C@@H]2COP(=O)(O)O[C@H]2[C@@H](OC)[C@H](n3ccc(N)nc3=O)O[C@@H]2COP(=O)(O)O[C@H]2[C@@H](OC)[C@H](n3cnc4c(N)ncnc43)O[C@@H]2COP(=O)(O)O)O[C@H]1n1ccc(N)nc1=O`, in the data set with Hepatitis C virus [1], the result was inactive.

Regarding `CCCCCCCCCCCCCCCCCCOCC1=CN(C[C@H]2O[C@@H](n3cc(C)c(=O)[nH]c3=O)C[C@@H]2OP(=O)(O)OC[C@H]2O[C@@H](n3cnc4c(N)ncnc43)[C@H](OC)[C@@H]2OP(=O)(O)OC[C@H]2O[C@@H](n3ccc(N)nc3=O)[C@H](OC)[C@@H]2OP(=O)(O)OC[C@H]2O[C@@H](n3ccc(N)nc3=O)[C@H](OC)[C@@H]2OP(=O)(O)OC[C@H]2O[C@@H](n3ccc(N)nc3=O)[C@H](OC)[C@@H]2OP(=O)(O)OC[C@H]2O[C@@H](n3cnc4c(N)ncnc43)[C@H](OC)[C@@H]2OP(=O)(O)OP(=O)(O)OC[C@H]2O[C@@H](n3cnc4c(N)ncnc43)[C@H](OC)[C@@H]2OP(=O)(O)OC[C@H]2O[C@@H](n3ccc(N)nc3=O)[C@H](OC)[C@@H]2OP(=O)(O)OC[C@H]2O[C@@H](n3cnc4c(N)ncnc43)[C@H](OC)[C@@H]2OP(=O)(O)OC[C@H]2O[C@@H](n3ccc(N)nc3=O)[C@H](OC)[C@@H]2OP(=O)(O)OC[C@H]2O[C@@H](n3ccc(=O)[nH]c3=O)[C@H](OC)[C@@H]2OP(=O)(O)OC[C@H]2O[C@@H](n3cnc4c(N)ncnc43)[C@H](OC)[C@@H]2OP(=O)(O)OC[C@H]2O[C@@H](n3ccc(N)nc3=O)[C@H](OC)[C@@H]2OP(=O)(O)OC[C@H]2O[C@@H](n3ccc(=O)[nH]c3=O)[C@H](OC)[C@@H]2OP(=O)(O)OC[C@H]2O[C@@H](n3ccc(N)nc3=O)[C@H](OC)[C@@H]2OP(=O)(O)OC[C@H]2O[C@@H](n3cnc4c(=O)[nH]c(N)nc43)[C@H](OC)[C@@H]2OP(=O)(O)OC[C@H]2O[C@@H](n3cnc4c(=O)[nH]c(N)nc43)[C@H](OC)[C@@H]2OP(=O)(O)OC[C@H]2O[C@@H](n3ccc(N)nc3=O)[C@H](OC)[C@@H]2OP(=O)(O)O)NN1`, the Activity result in data set [2] is “Non-toxic”; with Hepatitis C virus [1], “Dose-dependent effect”. Also, in the data set with Hepatitis C virus [3], the inhibition at 2 µM came out at 50%.

Take `CO[C@@H]1[C@H](OP(=O)(O)O)[C@@H](COP(=O)(O)O[C@H]2[C@@H](OC)[C@H](n3cnc4c(=O)[nH]c(N)nc43)O[C@@H]2COP(=O)(O)O[C@H]2[C@@H](OC)[C@H](n3cnc4c(=O)[nH]c(N)nc43)O[C@@H]2COP(=O)(O)O[C@H]2[C@@H](OC)[C@H](n3ccc(N)nc3=O)O[C@@H]2COP(=O)(O)O[C@H]2[C@@H](OC)[C@H](n3ccc(=O)[nH]c3=O)O[C@@H]2COP(=O)(O)O[C@H]2[C@@H](OC)[C@H](n3ccc(N)nc3=O)O[C@@H]2COP(=O)(O)O[C@H]2[C@@H](OC)[C@H](n3cnc4c(N)ncnc43)O[C@@H]2COP(=O)(O)O[C@H]2[C@@H](OC)[C@H](n3ccc(=O)[nH]c3=O)O[C@@H]2COP(=O)(O)O[C@H]2[C@@H](OC)[C@H](n3ccc(N)nc3=O)O[C@@H]2COP(=O)(O)O[C@H]2[C@@H](OC)[C@H](n3cnc4c(N)ncnc43)O[C@@H]2COP(=O)(O)O[C@H]2[C@@H](OC)[C@H](n3ccc(N)nc3=O)O[C@@H]2COP(=O)(O)O[C@H]2[C@@H](OC)[C@H](n3cnc4c(N)ncnc43)O[C@@H]2COP(=O)(O)OP(=O)(O)O[C@H]2[C@@H](OC)[C@H](n3cnc4c(N)ncnc43)O[C@@H]2COP(=O)(O)O[C@H]2[C@@H](OC)[C@H](n3ccc(N)nc3=O)O[C@@H]2COP(=O)(O)O[C@H]2[C@@H](OC)[C@H](n3ccc(N)nc3=O)O[C@@H]2COP(=O)(O)O[C@H]2[C@@H](OC)[C@H](n3ccc(N)nc3=O)O[C@@H]2COP(=O)(O)O[C@H]2[C@@H](OC)[C@H](n3cnc4c(N)ncnc43)O[C@@H]2COP(=O)(O)O[C@H]2C[C@H](n3cc(C)c(=O)[nH]c3=O)O[C@@H]2CN2C=C(CO[C@H]3CC[C@@]4(C)C(=CC[C@H]5[C@@H]6CC[C@H]([C@H](C)CCCC(C)C)[C@@]6(C)CC[C@@H]54)C3)NN2)O[C@H]1n1ccc(N)nc1=O`: the Activity result in data set [2] is “Non-toxic”; in the data set with Hepatitis C virus [1] it was “Dose-dependent effect”. In addition, the inhibition at 1 µM with Hepatitis C virus [4] was 50%.
